Our source for the MIC values is DBAASP.

Test systems include Escherichia coli AB94012; Escherichia coli 078; Escherichia coli; Escherichia coli K88; Escherichia coli K99; Escherichia coli UB1005; Acinetobacter baumannii; Staphylococcus aureus.
Common to all, as to assay: ≥ marks a high value that may be exact or a test limit, other limits are often not marked, values filed in µg/mL are converted to µM
In test [1] the test system is Staphylococcus aureus VRSA2.
In test [2] the test system is Staphylococcus aureus VISA1.
The subject of test [3] is Escherichia coli ATCC 25922.
For test [4], the system named is Staphylococcus aureus VRSA1.
In test [5] the test system is Enterococcus faecium BCRC 15B0132.
Test [6] relates to Staphylococcus aureus VISA3.
For test [7], the system named is Staphylococcus aureus ATCC 6538.
In test [8] the test system is Staphylococcus aureus P1381.
Test [9] relates to Staphylococcus aureus P1374.
Test [10] relates to Micrococcus luteus AB93113.
Test [11] concerns Bacillus thuringiensis AB92037.
In test [12] the test system is Staphylococcus epidermidis AB208187.
Test [13] relates to Staphylococcus aureus AB208193.
For test [14], the system named is Staphylococcus epidermidis AB208188.
Test [15] concerns Pseudomonas aeruginosa ATCC 9027.
Test [16] has as its system Staphylococcus aureus P1389.
The subject of test [17] is Staphylococcus aureus ATCC 25923.
For test [18], the system named is Bacillus subtilis AB91021.
Test [19] deals with Staphylococcus xylosus DSM 20287.
Test [20] concerns Bacillus subtilis DSM 347.
Test [21] relates to Escherichia coli DSM 1116.
Test [22] concerns Franconibacter helveticus DSM 18390.
In test [23] the test system is Staphylococcus aureus ATCC 29213.
Test [24] has as its system Salmonella enterica subsp. enterica serovar Pullorum C79-13.
For test [25], the system named is Pseudomonas aeruginosa 25349.
Test [26] concerns Enterococcus faecalis ATCC 29212.
Test [27] concerns Salmonella enterica subsp. enterica serovar Typhimurium ATCC 14028.
Test [28] concerns Bacillus subtilis CMCC 63501.
Test [29] relates to Salmonella enterica subsp. enterica serovar Typhimurium C77-31.
Test [30] has as its system Staphylococcus epidermidis ATCC 12228.
Test [31] deals with Candida parapsilosis ATCC 22019.
For test [32], the system named is Candida albicans ATCC 24433.
In test [33] the test system is Trichophyton rubrum ATCC 28189.

Values after ≈ are worked out from the molar mass of the structure shown.

In the case of `CC(=O)N[C@@H](C)C(=O)N[C@@H](CCCCN)C(=O)N[C@@H](CCCN=C(N)N)C(=O)N[C@@H](Cc1ccccc1)C(=O)N[C@@H](Cc1ccccc1)C(=O)NCC(=O)N[C@@H](Cc1ccc(O)cc1)C(=O)N[C@@H](CCCCN)C(=O)N[C@@H](CCCN=C(N)N)C(=O)N[C@@H](CCCCN)C(=O)N[C@@H](Cc1ccccc1)C(=O)N[C@@H](Cc1ccccc1)C(N)=O` [AKRFFGYKRKFF], the MIC was at least 40.1 µM in test [1]; at least 40.1 µM in test [2]; 40.1 µM (≈ 65.6 µg/mL) in [3]; at least 40.1 µM in [4]; at least 40.1 µM in test [5]; at least 40.1 µM in test [6].
Consider `CC[C@H](C)[C@H](NC(=O)[C@H](CCCCN)NC(=O)[C@@H](NC(=O)[C@H](C)NC(=O)[C@H](CC(C)C)NC(=O)[C@H](CCCCN)NC(=O)[C@H](Cc1ccccc1)NC(=O)[C@H](CC(C)C)NC(=O)[C@H](Cc1cnc[nH]1)NC(=O)CNC(=O)[C@H](Cc1ccccc1)NC(=O)[C@@H](N)Cc1ccccc1)[C@@H](C)O)C(=O)N[C@H](C(=O)N1CCC[C@H]1C(=O)N[C@@H](CO)C(=O)N[C@@H](CC(C)C)C(=O)N[C@@H](Cc1ccccc1)C(=O)N[C@@H](CCCN=C(N)N)C(=O)O)[C@@H](C)CC` [FFGHLFKLATKIIPSLFR], for which the MIC stood at 1.5 µM (≈ 3.2 µg/mL) in [7]; 1.5 µM (≈ 3.2 µg/mL) in test [8]; 2.9 µM (≈ 6.19 µg/mL) in test [9]; 11.7 µM (≈ 25 µg/mL) in the test with Escherichia coli AB94012; 5.9 µM (≈ 12.6 µg/mL) in test [3]; 23.4 µM (≈ 50 µg/mL) in test [10]. Further, the MIC in test [11] amounted to 2.9 µM (≈ 6.19 µg/mL); in [12] it was 2.9 µM (≈ 6.19 µg/mL); in test [13], 2.9 µM (≈ 6.19 µg/mL); in test [14], 2.9 µM (≈ 6.19 µg/mL); in [15] it was 5.9 µM (≈ 12.6 µg/mL); in [16], 2.9 µM (≈ 6.19 µg/mL). In addition, the MIC in [17] and in [18] was 2.9 µM (≈ 6.19 µg/mL) each time.
As to `CC[C@H](C)[C@H](N)C(=O)N[C@@H](C)C(=O)N[C@@H](CCCCN)C(=O)N[C@H](C(=O)N[C@@H](C)C(=O)NCC(=O)N[C@@H](CCCCN)C(=O)N[C@H](C(=O)N[C@@H](C)C(=O)N[C@@H](CCCCN)C(=O)N[C@H](C(=O)N[C@@H](C)C(=O)NCC(=O)N[C@@H](CCCCN)C(=O)N[C@H](C(=O)N[C@@H](C)C(=O)N[C@@H](CCCCN)C(=O)N[C@H](C(=O)N[C@@H](C)C(=O)NCC(=O)N[C@@H](CCCCN)C(=O)N[C@H](C(=O)N[C@@H](C)C(=O)N[C@@H](CCCCN)C(N)=O)[C@@H](C)CC)[C@@H](C)CC)[C@@H](C)CC)[C@@H](C)CC)[C@@H](C)CC)[C@@H](C)CC` [IAKIAGKIAKIAGKIAKIAGKIAK], the MIC in test [19] was determined as 0.842 µM (≈ 2 µg/mL); in test [20] it was 0.842 µM (≈ 2 µg/mL); in [21], 1.68 µM (≈ 4 µg/mL); in test [22], 1.19 µM (≈ 2.83 µg/mL).
Turning to `CC[C@H](C)[C@H](NC(=O)[C@H](Cc1c[nH]c2ccccc12)NC(=O)[C@H](CCCCN)NC(=O)[C@H](CC(C)C)NC(=O)[C@@H](NC(=O)[C@H](CCCCN)NC(=O)CNC(=O)[C@@H](NC(=O)[C@H](CCCCN)NC(=O)[C@H](Cc1c[nH]c2ccccc12)NC(=O)[C@H](CC(C)C)NC(=O)[C@@H](N)CCCN=C(N)N)[C@@H](C)CC)C(C)C)C(N)=O` [RLWKIGKVLKWI], the minimum inhibitory concentration (MIC) in test [23] was 4 µM (≈ 6.16 µg/mL); in test [24], 1 µM (≈ 1.54 µg/mL); in the test on Escherichia coli 078, 2 µM (≈ 3.08 µg/mL); in test [25], 4 µM (≈ 6.16 µg/mL); in test [26], 4 µM (≈ 6.16 µg/mL); in test [27] it was 2 µM (≈ 3.08 µg/mL). Moreover, the MIC was determined as 2 µM (≈ 3.08 µg/mL) against Escherichia coli; 1 µM (≈ 1.54 µg/mL) in the test with Escherichia coli K88; 1 µM (≈ 1.54 µg/mL) in [28]; 4 µM (≈ 6.16 µg/mL) in test [29]; 2 µM (≈ 3.08 µg/mL) in test [3]; 4 µM (≈ 6.16 µg/mL) in [30]. In addition, the MIC was 2 µM (≈ 3.08 µg/mL) in the test with Escherichia coli K99; 1 µM (≈ 1.54 µg/mL) with Escherichia coli UB1005; 2 µM (≈ 3.08 µg/mL) in the test with Acinetobacter baumannii; 2 µM (≈ 3.08 µg/mL) in [17]; 2 µM (≈ 3.08 µg/mL) in the test with Staphylococcus aureus.
As for `CC[C@H](C)[C@H](NC(=O)[C@H](CC(C)C)NC(=O)[C@H](CCC(=O)O)NC(=O)[C@H](CO)NC(=O)[C@H](CCCN=C(N)N)NC(=O)[C@@H](N)CO)C(=O)N[C@H](C(=O)N[C@@H](CCCN=C(N)N)C(=O)N[C@@H](CCC(N)=O)C(=O)N[C@@H](CCCN=C(N)N)C(=O)N[C@@H](CC(C)C)C(=O)N[C@@H](Cc1ccccc1)C(N)=O)C(C)C` [SRSELIVRQRLF], the MIC in test [31] was at least 266 µM; in the test with Escherichia coli, above 266 µM; in [32], at least 266 µM; in [33], at least 266 µM; against Staphylococcus aureus it was above 266 µM.
